*1 amine or outer side, *2 acyl side, *3 side chain or, on linkers, in order; H or OH if unused. Where a SMILES comes first, the peptide text is derived from it. Bridges are numbered along the chain shown (N, C = ends). [ ]: non-standard residue; d: D form. The star is where a group is joined. X127 = CN([C@@H](Cc1cc(F)ccc1-c1cnn(S(=O)(=O)C2CC2)c1)C(=O)[*:2])[*:1]; X42 = CN([C@@H](Cc1cc(Cl)ccc1-c1cnn(S(=O)(=O)C2CC2)c1)C(=O)[*:2])[*:1]; X142 = CN([C@@H](Cc1cc(Cl)ccc1C1=CCN(S(C)(=O)=O)CC1)C(=O)[*:2])[*:1]; X82 = CN([C@@H](Cc1cc(Cl)ccc1-c1cnn(S(C)(=O)=O)c1)C(=O)[*:2])[*:1]; X171 = CC(=O)N1CC=C(c2ncc(Cl)cc2C[C@@H](C(=O)[*:2])N(C)[*:1])CC1; NMehhhLys(Me) = CN([C@@H](CCCCCCCN(C)[*:3])C(=O)[*:2])[*:1]; X118 = Cc1cc(-c2ccc(Cl)cc2C[C@@H](C(=O)[*:2])N(C)[*:1])cnn1; X117 = Cc1cc(-c2ccc(F)cc2C[C@@H](C(=O)[*:2])N(C)[*:1])cnn1; X194 = CN([C@@H](Cc1cc(Cl)ccc1-c1ccnnc1)C(=O)[*:2])[*:1]; X176 = CN([C@@H](Cc1cc(F)ccc1-c1cccnc1)C(=O)[*:2])[*:1]; X204 = CN([C@@H](Cc1cc(F)ccc1-c1ccnnc1)C(=O)[*:2])[*:1]; NMe(hhhLys) = CN([C@@H](CCCCCCCN[*:3])C(=O)[*:2])[*:1]; Oxane2carbonyl(2R-CF3) = O=C([C@@]1(C(F)(F)F)CCCCO1)*; cBuCO(3,3-F2-1-CF3) = O=C(C1(C(F)(F)F)CC(F)(F)C1)*; Pro(trans-4-F) = O=C(O)[C@@H]1C[C@@H](F)CN1; Pivaloyl(3,3,3-F3) = CC(C)(C(=O)*)C(F)(F)F; Gly(cPr) = N[C@H](C(=O)O)C1CC1
Experiments:
CyclinA2/CDK2 = target: T1, CyclinA2/CDK2 (Homo sapiens, UniProt P20248); assay: Fluorescence Polarization (FP) competitive binding assay, Cyclin A2/Cdk2; conditions: 8 nM Cyclin A2/Cdk2, 2 nM FAM probe; average of 2-3 independent experiments; read-out: Cyclin A FP IC50;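 note: plates equilibrated two hours at room temperature before polarization reading, IC50 fitted from eight-concentration compound titration curves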
T1 construct: purchased CRELUX Protein Services

OVCAR3 cells = assay: MTT proliferation assay, OVCAR3; format: cell-based; conditions: 5 days compound exposure, 1:3 serial dilution starting at 10 μM;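 note: compound given as an 8- or 10-point series, one day after plating, with exposure covering roughly 3-4 cell doublings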
NCI-H1048 cells = assay: MTT proliferation assay, NCI-H1048; format: cell-based; conditions: 5 days compound exposure, 1:3 serial dilution starting at 10 μM;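 note: Dose-response in 96-well plates over 8 or 10 concentration points, with exposure spanning 3-4 cell doublings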
CyclinE1/CDK2 = target: T2, CyclinE1/CDK2 (Homo sapiens, UniProt P24864); assay: Fluorescence Polarization (FP) competitive binding assay, Cyclin E1/Cdk2; conditions: 10 nM Cyclin E1/Cdk2, 2 nM FAM probe; average of 2-3 independent experiments; read-out: Cyclin E FP IC50;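 note: readings taken after two-hour equilibration at room temperature in HEPES buffer with NaCl, DTT, NP-40 and BSA, IC50 fitted from eight-concentration serial dilution series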
T2 construct: purchased Eurofins, discovery 14-475

CyclinB1/CDK1 = target: T3, CyclinB1/CDK1 (Homo sapiens, UniProt P14635); assay: Fluorescence Polarization (FP) competitive binding assay, Cyclin B1/Cdk1; conditions: 10 nM Cyclin B1/Cdk1, 2 nM FAM probe; average of 2-3 independent experiments; read-out: Cyclin B FP IC50;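 note: fluorescence polarization read after equilibration at room temperature, with IC50 taken from serially diluted dose-response curves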
T3 construct: purchased Eurofins, discovery 14-450

SMILES	IC50 (CyclinA2/CDK2)	GI50 (OVCAR3 cells)	GI50 (NCI-H1048 cells)	IC50 (CyclinE1/CDK2)	IC50 (CyclinB1/CDK1)
CC(C)C[C@@H]1NC(=O)[C@@H](N(C)C(=O)[C@@H](NC(=O)[C@@H]2C[C@@H](F)CN2C(=O)C2(C(F)(F)F)CC(F)(F)C2)C2CC2)C/C=C\CCCCN(C)C(=O)[C@H](Cc2cc(F)ccc2-c2cnn(S(C)(=O)=O)c2)N(C)C1=O [Example 278]	0.07 µM	0.01 µM	0.01 µM	0.28 µM	0.02 µM
CC(C)C[C@@H]1NC(=O)[C@@H](N(C)C(=O)[C@@H](NC(=O)[C@@H]2C[C@@H](F)CN2C(=O)C2(C(F)(F)F)CC(F)(F)C2)C2CC2)CCCCCCCN(C)C(=O)[C@H](Cc2cc(F)ccc2-c2ccnnc2)N(C)C1=O [Example 279] ({cBuCO(3,3-F2-1-CF3)}-[Pro(trans-4-F)][Gly(cPr)][NMehhhLys(Me)]L[X204]; lactam 3-C)	0.1 µM	0.09 µM	0.08 µM	1.92 µM	0.02 µM
CC(C)C[C@@H]1NC(=O)[C@@H](N(C)C(=O)[C@@H](NC(=O)[C@@H]2C[C@@H](F)CN2C(=O)C2(C(F)(F)F)CC(F)(F)C2)C2CC2)CCCCCCCNC(=O)[C@H](Cc2cc(F)ccc2-c2cccnc2)N(C)C1=O [Example 280] ({cBuCO(3,3-F2-1-CF3)}-[Pro(trans-4-F)][Gly(cPr)][NMe(hhhLys)]L[X176]; lactam 3-C)	0.04 µM	0.01 µM	0.01 µM	0.32 µM	0.02 µM
CC(C)C[C@@H]1NC(=O)[C@@H](N(C)C(=O)[C@@H](NC(=O)[C@@H]2C[C@@H](F)CN2C(=O)C2(C(F)(F)F)CC(F)(F)C2)C2CC2)CCCCCCCNC(=O)[C@H](Cc2cc(F)ccc2-c2cnn(S(=O)(=O)C3CC3)c2)N(C)C1=O [Example 281] ({cBuCO(3,3-F2-1-CF3)}-[Pro(trans-4-F)][Gly(cPr)][NMe(hhhLys)]L[X127]; lactam 3-C)	0.04 µM	0.02 µM	0.01 µM	0.53 µM	0.02 µM
CC(C)C[C@@H]1NC(=O)[C@@H](N(C)C(=O)[C@@H](NC(=O)[C@@H]2C[C@@H](F)CN2C(=O)[C@@]2(C(F)(F)F)CCCCO2)C2CC2)CCCCCCCN(C)C(=O)[C@H](Cc2cc(F)ccc2-c2cnn(S(=O)(=O)C3CC3)c2)N(C)C1=O [Example 282] ({Oxane2carbonyl(2R-CF3)}-[Pro(trans-4-F)][Gly(cPr)][NMehhhLys(Me)]L[X127]; lactam 3-C)	0.03 µM	0.01 µM	0.01 µM	0.1 µM	0.02 µM
CC(C)C[C@@H]1NC(=O)[C@@H](N(C)C(=O)[C@@H](NC(=O)[C@@H]2C[C@@H](F)CN2C(=O)C2(C(F)(F)F)CC(F)(F)C2)C2CC2)CCCCCCCNC(=O)[C@H](Cc2cc(Cl)ccc2C2=CCN(S(C)(=O)=O)CC2)N(C)C1=O [Example 284] ({cBuCO(3,3-F2-1-CF3)}-[Pro(trans-4-F)][Gly(cPr)][NMe(hhhLys)]L[X142]; lactam 3-C)	0.02 µM	0.01 µM	0.01 µM	1.74 µM	0.02 µM
CC(C)C[C@@H]1NC(=O)[C@@H](N(C)C(=O)[C@@H](NC(=O)[C@@H]2C[C@@H](F)CN2C(=O)C2(C(F)(F)F)CC(F)(F)C2)C2CC2)CCCC=CCCNC(=O)[C@H](Cc2cc(Cl)ccc2-c2cnn(C)c2)N(C)C1=O [Example 285]	0.06 µM	0.03 µM	0.05 µM	1.7 µM	0.02 µM
CC(C)C[C@@H]1NC(=O)[C@@H](N(C)C(=O)[C@@H](NC(=O)[C@@H]2C[C@@H](F)CN2C(=O)C2(C(F)(F)F)CC(F)(F)C2)C2CC2)CCCC=CCCNC(=O)[C@H](Cc2cc(Cl)ccc2-c2cnn(C3CC3)c2)N(C)C1=O [Example 287]	0.06 µM	0.04 µM	0.04 µM	1.94 µM	0.02 µM
CC(C)C[C@@H]1NC(=O)[C@@H](N(C)C(=O)[C@@H](NC(=O)[C@@H]2C[C@@H](F)CN2C(=O)C2(C(F)(F)F)CC(F)(F)C2)C2CC2)CCCCCCCNC(=O)[C@H](Cc2cc(F)ccc2-c2ccnnc2)N(C)C1=O [Example 290] ({cBuCO(3,3-F2-1-CF3)}-[Pro(trans-4-F)][Gly(cPr)][NMe(hhhLys)]L[X204]; lactam 3-C)	0.12 µM	0.15 µM	0.08 µM	1.79 µM	0.02 µM
CC(C)C[C@@H]1NC(=O)[C@@H](N(C)C(=O)[C@@H](NC(=O)[C@@H]2C[C@@H](F)CN2C(=O)C2(C(F)(F)F)CC(F)(F)C2)C2CC2)CCCCCCCNC(=O)[C@H](Cc2cc(Cl)ccc2-c2ccnnc2)N(C)C1=O [Example 291] ({cBuCO(3,3-F2-1-CF3)}-[Pro(trans-4-F)][Gly(cPr)][NMe(hhhLys)]L[X194]; lactam 3-C)	0.07 µM	0.15 µM	0.12 µM	5.16 µM	0.02 µM
CC(C)C[C@@H]1NC(=O)[C@@H](N(C)C(=O)[C@@H](NC(=O)[C@@H]2C[C@@H](F)CN2C(=O)C2(C(F)(F)F)CC(F)(F)C2)C2CC2)CCCCCCCN(C)C(=O)[C@H](Cc2cc(Cl)ccc2-c2ccnnc2)N(C)C1=O [Example 292] ({cBuCO(3,3-F2-1-CF3)}-[Pro(trans-4-F)][Gly(cPr)][NMehhhLys(Me)]L[X194]; lactam 3-C)	0.06 µM	0.11 µM	0.07 µM	2.88 µM	0.02 µM
Cc1cc(-c2ccc(F)cc2C[C@H]2C(=O)N(C)CCCCCCC[C@H](N(C)C(=O)[C@@H](NC(=O)[C@@H]3C[C@@H](F)CN3C(=O)C3(C(F)(F)F)CC(F)(F)C3)C3CC3)C(=O)N[C@@H](CC(C)C)C(=O)N2C)cnn1 [Example 293] ({cBuCO(3,3-F2-1-CF3)}-[Pro(trans-4-F)][Gly(cPr)][NMehhhLys(Me)]L[X117]; lactam 3-C)	0.1 µM	0.09 µM	0.05 µM	1.99 µM	0.02 µM
Cc1cc(-c2ccc(F)cc2C[C@H]2C(=O)NCCCCCCC[C@H](N(C)C(=O)[C@@H](NC(=O)[C@@H]3C[C@@H](F)CN3C(=O)C3(C(F)(F)F)CC(F)(F)C3)C3CC3)C(=O)N[C@@H](CC(C)C)C(=O)N2C)cnn1 [Example 294] ({cBuCO(3,3-F2-1-CF3)}-[Pro(trans-4-F)][Gly(cPr)][NMe(hhhLys)]L[X117]; lactam 3-C)	0.08 µM	0.13 µM	0.08 µM	1.44 µM	0.02 µM
Cc1cc(-c2ccc(Cl)cc2C[C@H]2C(=O)NCCCCCCC[C@H](N(C)C(=O)[C@@H](NC(=O)[C@@H]3C[C@@H](F)CN3C(=O)C3(C(F)(F)F)CC(F)(F)C3)C3CC3)C(=O)N[C@@H](CC(C)C)C(=O)N2C)cnn1 [Example 295] ({cBuCO(3,3-F2-1-CF3)}-[Pro(trans-4-F)][Gly(cPr)][NMe(hhhLys)]L[X118]; lactam 3-C)	0.07 µM	0.16 µM	0.08 µM	3.69 µM	0.02 µM
Cc1cc(-c2ccc(Cl)cc2C[C@H]2C(=O)N(C)CCCCCCC[C@H](N(C)C(=O)[C@@H](NC(=O)[C@@H]3C[C@@H](F)CN3C(=O)C3(C(F)(F)F)CC(F)(F)C3)C3CC3)C(=O)N[C@@H](CC(C)C)C(=O)N2C)cnn1 [Example 296] ({cBuCO(3,3-F2-1-CF3)}-[Pro(trans-4-F)][Gly(cPr)][NMehhhLys(Me)]L[X118]; lactam 3-C)	0.07 µM	0.1 µM	0.07 µM	2.81 µM	0.02 µM
CC(C)C[C@@H]1NC(=O)[C@@H](N(C)C(=O)[C@@H](NC(=O)[C@@H]2C[C@@H](F)CN2C(=O)C2(C(F)(F)F)CC(F)(F)C2)C2CC2)C/C=C\CCCCN(C)C(=O)[C@H](Cc2cc(Cl)ccc2-c2cnn(S(C)(=O)=O)c2)N(C)C1=O [Example 298]	0.05 µM	0.02 µM	0.01 µM	0.44 µM	0.02 µM
CC(C)C[C@@H]1NC(=O)[C@@H](N(C)C(=O)[C@@H](NC(=O)[C@@H]2C[C@@H](F)CN2C(=O)C2(C(F)(F)F)CC(F)(F)C2)C2CC2)CCCCCCCNC(=O)[C@H](Cc2cc(Cl)ccc2-c2cnn(S(=O)(=O)C3CC3)c2)N(C)C1=O [Example 300] ({cBuCO(3,3-F2-1-CF3)}-[Pro(trans-4-F)][Gly(cPr)][NMe(hhhLys)]L[X42]; lactam 3-C)	0.03 µM	0.04 µM	0.03 µM	0.68 µM	0.02 µM
CC(C)C[C@@H]1NC(=O)[C@@H](N(C)C(=O)[C@@H](NC(=O)[C@@H]2C[C@@H](F)CN2C(=O)C(C)(C)C(F)(F)F)C2CC2)CCCCCCCN(C)C(=O)[C@H](Cc2cc(Cl)ccc2-c2cnn(S(C)(=O)=O)c2)N(C)C1=O [Example 301] ({Pivaloyl(3,3,3-F3)}-[Pro(trans-4-F)][Gly(cPr)][NMehhhLys(Me)]L[X82]; lactam 3-C)	0.04 µM	0.02 µM	0.02 µM	0.32 µM	0.02 µM
CC(=O)N1CC=C(c2ncc(Cl)cc2C[C@H]2C(=O)NCCCCCCC[C@H](N(C)C(=O)[C@@H](NC(=O)[C@@H]3C[C@@H](F)CN3C(=O)C3(C(F)(F)F)CC(F)(F)C3)C3CC3)C(=O)N[C@@H](CC(C)C)C(=O)N2C)CC1 [Example 302] ({cBuCO(3,3-F2-1-CF3)}-[Pro(trans-4-F)][Gly(cPr)][NMe(hhhLys)]L[X171]; lactam 3-C)	0.05 µM	0.12 µM	0.14 µM	3.56 µM	0.02 µM

Reference: patent US20240408169A1 (priority 2023, published 2024)
